Test results from patent US9751869B2, “LXR modulators” (BRISTOL-MYERS SQUIBB COMPANY, priority 2013, dated 2017).

Target: T1, LXRβ (Homo sapiens, UniProt P55055)
T1 construct: Co-transfection expression plasmids, comprising full-length LXRα (pCMX-h LXRα or LXRβ (pCMX-hLXRβ)); expressed in transfected cells; host or cells: CV-1 African green monkey kidney cells, transient transfection with pCMX-hLXRβ
T1 sequence (P55055 1-460): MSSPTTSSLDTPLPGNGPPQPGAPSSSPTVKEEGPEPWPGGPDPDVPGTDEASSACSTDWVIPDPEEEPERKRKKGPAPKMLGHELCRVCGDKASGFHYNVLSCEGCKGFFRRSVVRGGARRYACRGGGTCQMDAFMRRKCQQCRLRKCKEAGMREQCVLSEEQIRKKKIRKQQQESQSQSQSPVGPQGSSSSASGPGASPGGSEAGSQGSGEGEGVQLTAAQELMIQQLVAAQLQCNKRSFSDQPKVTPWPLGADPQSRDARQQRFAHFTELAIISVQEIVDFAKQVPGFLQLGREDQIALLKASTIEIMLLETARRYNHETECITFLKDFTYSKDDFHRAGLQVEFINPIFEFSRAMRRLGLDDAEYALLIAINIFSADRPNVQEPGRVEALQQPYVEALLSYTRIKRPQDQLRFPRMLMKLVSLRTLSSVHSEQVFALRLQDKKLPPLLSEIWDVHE
T1 sequence (P19793 1-462 partner): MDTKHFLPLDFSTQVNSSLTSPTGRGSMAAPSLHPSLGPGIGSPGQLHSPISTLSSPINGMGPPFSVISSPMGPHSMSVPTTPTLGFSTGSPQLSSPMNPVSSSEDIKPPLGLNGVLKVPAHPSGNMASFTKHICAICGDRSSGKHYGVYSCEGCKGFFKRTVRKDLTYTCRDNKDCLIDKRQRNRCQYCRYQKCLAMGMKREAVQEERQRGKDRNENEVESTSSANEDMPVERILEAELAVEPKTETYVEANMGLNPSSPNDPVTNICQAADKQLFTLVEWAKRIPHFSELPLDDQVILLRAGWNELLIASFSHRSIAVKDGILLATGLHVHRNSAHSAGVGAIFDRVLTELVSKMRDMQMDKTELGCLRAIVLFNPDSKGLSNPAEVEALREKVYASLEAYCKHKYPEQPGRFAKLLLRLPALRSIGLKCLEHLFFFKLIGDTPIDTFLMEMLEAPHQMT
Test: LXR/LXRE co-transfection assay (luciferase reporter) in CV-1 cells, LXRβ
Type: cell-based
Conditions: for EC50: CV-1 cells transfected with pCMX-hLXRβ and LXREx1-Tk-Luciferase, 20 hours incubation, read-out: LXRbeta agonism EC50; for Emax / LXRbeta % EFFICACY: CV-1 cells, relative to maximum response of high control N-(3-((4-fluorophenyl)-(naphthalene-2-sulfonyl)amino)propyl)-2,2-dimethylpropionamide; for Emax: read-out: LXRbeta % EFFICACY
Method in brief: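 Luciferase read-out after 20 h compound treatment at 37 °C of CV-1 cells carrying transfected hLXRβ plus one-copy LXRE reporter, endogenous RXR partnering. Sigmoidal fit of 10-point half-log curves (4 wells each) gave EC50; % efficacy versus maximal response of the propionamide reference agonist.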

SMILES	EC50 [nM]	Emax [%]	LXRbeta % EFFICACY [%]
Cc1nc(-c2ccc3c(c2)OC(F)(F)O3)c(-c2cc(-c3cc(F)c(CO)c(S(C)(=O)=O)c3)ccc2-n2ccc(C(C)(C)O)n2)o1 [Example 358, 2-(1-(3-(4-(2,2-difluorobenzo[d][1,3]dioxol-5-yl)-2-methyloxazol-5-yl)-3′-fluoro-4′-(hydroxymethyl)-5′-(methylsulfonyl)-[1,1′-biphenyl]-4-yl)-1H-pyrazol-3-yl)propan-2-ol]	105	30	–
Cc1nc(-c2ccc(OC(F)(F)F)cc2)c(-c2cc(-c3cc(F)c(CO)c(S(C)(=O)=O)c3)ccc2-n2ccc(C(C)(C)O)n2)o1 [Example 317, 2-(1-(3′-fluoro-4′-(hydroxymethyl)-3-(2-methyl-4-(4-(trifluoromethoxy)phenyl)oxazol-5-yl)-5′-(methylsulfonyl)biphenyl-4-yl)-1H-pyrazol-3-yl)propan-2-ol]	92	27	–
Cc1nc(-c2ccc(OC(F)(F)F)cc2)c(-c2cc(-c3cccc(S(C)(=O)=O)c3)ccc2-n2ccc(C(N)=O)n2)o1 [Example 308, 1-(3-(2-methyl-4-(4-(trifluoromethoxy)phenyl)oxazol-5-yl)-3′-(methylsulfonyl)biphenyl-4-yl)-1H-pyrazole-3-carboxamide]	1650	29	–
COCC(F)(F)c1cc(-c2ccc(-c3cccc(S(C)(=O)=O)c3)cc2-n2nncc2-c2ccc(OC(F)(F)F)cc2)n(C)n1 [Example 16, 1-[4-{3-[1,1-difluoro-2-(methyloxy)ethyl]-1-methyl-1H-pyrazol-5-yl}-3′-(methylsulfonyl)biphenyl-3-yl]-5-{4-[(trifluoromethyl)oxy]phenyl}-1H-1,2,3-triazole]	163	89	–
Cc1nc(-c2ccc(C(F)(F)F)cc2)c(-c2cc(-c3cc(F)c(CO)c(S(C)(=O)=O)c3)ccc2-n2cc(Cl)c(C(F)(F)F)n2)o1 [Example 438, (4′-(4-chloro-3-(trifluoromethyl)-1H-pyrazol-1-yl)-3-fluoro-3′-(2-methyl-4-(4-(trifluoromethyl)phenyl)oxazol-5-yl)-5-(methylsulfonyl)-[1,1′-biphenyl]-4-yl)methanol]	128	70	–
Cc1cc(C(C)(F)F)nn1-c1ccc(-c2cccc(S(C)(=O)=O)c2)cc1-n1nncc1-c1ccc(OC(F)(F)F)cc1 [Example 304, 1-{4-[3-(1,1-difluoroethyl)-5-methyl-1H-pyrazol-1-yl]-3′-(methylsulfonyl)biphenyl-3-yl}-5-{4-[(trifluoromethyl)oxy]phenyl}-1H-1,2,3-triazole]	2860	26	–
Cc1nc(-c2ccc3c(c2)OC(F)(F)O3)c(-c2cc(-c3cccc(S(C)(=O)=O)c3)ccc2-c2cc(C(C)OC(N)=O)nn2C)o1 (centres unmarked) [Example 130, 1-(5-(3-(4-(2,2-difluorobenzo[d][1,3]dioxol-5-yl)-2-methyloxazol-5-yl)-3′-(methylsulfonyl)-[1,1′-biphenyl]-4-yl)-1-methyl-1H-pyrazol-3-yl)ethyl carbamate]	113	–	56
Cc1nc(-c2ccc3c(c2)OC(F)(F)O3)c(-c2cc(-c3cc(F)c(CO)c(S(C)(=O)=O)c3)ccc2-c2cc(C(F)(F)C(N)=O)nn2C)o1 [Example 74, 2-(5-(3-(4-(2,2-difluorobenzo[d][1,3]dioxol-5-yl)-2-methyloxazol-5-yl)-3′-fluoro-4′-(hydroxymethyl)-5′-(methylsulfonyl)biphenyl-4-yl)-1-methyl-1H-pyrazol-3-yl)-2,2-difluoroacetamide]	92	60	–
Cc1nc(-c2ccc3c(c2)OC(F)(F)O3)c(-c2cc(-c3cccc(S(C)(=O)=O)c3)ccc2-c2cc(C(=O)NCC3CC3)nn2C)o1 [Example 109, N-(cyclopropylmethyl)-5-(3-(4-(2,2-difluorobenzo[d][1,3]dioxol-5-yl)-2-methyloxazol-5-yl)-3′-(methylsulfonyl)-[1,1′-biphenyl]-4-yl)-1-methyl-1H-pyrazole-3-carboxamide]	356	52	–
Cc1nc(-c2ccc(OC(F)(F)F)cc2)c(-c2cc(-c3cccc(S(C)(=O)=O)c3)ccc2-n2ccc(C(C)O)n2)o1 (single isomer, unassigned) [Example 367, 1-(1-(3-(2-methyl-4-(4-(trifluoromethoxy)phenyl)oxazol-5-yl)-3′-(methylsulfonyl)-[1,1′-biphenyl]-4-yl)-1H-pyrazol-3-yl)ethanol]	264	55	–
Cc1nc(-c2ccc3c(c2)OC(F)(F)O3)c(-c2cc(-c3cc(F)c(CO)c(S(C)(=O)=O)c3)ccc2-c2cc(C(=O)NC(C)(C)C)nn2C)o1 [Example 114, N-(tert-butyl)-5-(3-(4-(2,2-difluorobenzo[d][1,3]dioxol-5-yl)-2-methyloxazol-5-yl)-3′-fluoro-4′-(hydroxymethyl)-5′-(methylsulfonyl)-[1,1′-biphenyl]-4-yl)-1-methyl-1H-pyrazole-3-carboxamide]	273	28	–
CNC(=O)C(F)(F)c1cc(-c2ccc(-c3cc(F)cc(S(C)(=O)=O)c3)cc2-c2oc(C)nc2-c2ccc3c(c2)OC(F)(F)O3)n(C)n1 [Example 85, 2-(5-(3-(4-(2,2-difluorobenzo[d][1,3]dioxol-5-yl)-2-methyloxazol-5-yl)-3′-fluoro-5′-(methylsulfonyl)biphenyl-4-yl)-1-methyl-1H-pyrazol-3-yl)-2,2-difluoro-N-methylacetamide]	588	55	–

Continued by falling EC50, values first:

EC50 [nM]	Emax [%]	LXRbeta % EFFICACY [%]	SMILES
92	22	–	Cc1nc(-c2ccc(OC(F)(F)F)cc2)c(-c2cc(-c3cccc(S(C)(=O)=O)c3)ccc2-n2ccc(C(C)(C)C#N)n2)o1 [Example 373]
86	–	69	Cc1nc(-c2ccc3c(c2)OC(F)(F)O3)c(-c2cc(-c3cccc(S(C)(=O)=O)c3)ccc2-c2cc(C(F)(F)CO)nn2C)o1 [Example 49, 2-(5-(3-(4-(2,2-difluorobenzo[d][1,3]dioxol-5-yl)-2-methyloxazol-5-yl)-3′-(methylsulfonyl)biphenyl-4-yl)-1-methyl-1H-pyrazol-3-yl)-2,2-difluoroethanol]
58	76	–	CC(C)c1nc(-c2ccc(OC(F)(F)F)cc2)c(-c2cc(-c3cc(F)c(CO)c(S(C)(=O)=O)c3)ccc2-n2ccc(C(F)(F)F)n2)o1 [Example 341, (3-fluoro-3′-(2-isopropyl-4-(4-(trifluoromethoxy)phenyl)oxazol-5-yl)-5-(methylsulfonyl)-4′-(3-(trifluoromethyl)-1H-pyrazol-1-yl)biphenyl-4-yl)methanol]
26	89	–	CCC(F)(F)c1cc(-c2ccc(-c3cc(F)c(CO)c(S(C)(=O)=O)c3)cc2-n2nncc2-c2ccc(OC(F)(F)F)cc2)n(C)n1 [Example 2, (4′-(3-(1,1-difluoropropyl)-1-methyl-1H-pyrazol-5-yl)-3-fluoro-5-(methylsulfonyl)-3′-(5-(4-(trifluoromethoxy)phenyl)-1H-1,2,3-triazol-1-yl)biphenyl-4-yl)methanol]
18	76	–	Cc1nc(-c2cc(-c3cccc(S(C)(=O)=O)c3)ccc2-n2nc(C(F)(F)F)cc2C)c(-c2ccc(OC(F)F)cc2)o1 [Example 383, 5-(4-(difluoromethoxy)phenyl)-2-methyl-4-(4-(5-methyl-3-(trifluoromethyl)-1H-pyrazol-1-yl)-3′-(methylsulfonyl)biphenyl-3-yl)oxazole]
7	85	–	Cc1nc(-c2ccc3c(c2)OC(F)(F)O3)c(-c2cc(-c3cc(F)c(CO)c(S(C)(=O)=O)c3)ccc2-c2cc(C3(C#N)CC3)nn2C)o1 [Example 60, 1-(5-(3-(4-(2,2-difluorobenzo[d][1,3]dioxol-5-yl)-2-methyloxazol-5-yl)-3′-fluoro-4′-(hydroxymethyl)-5′-(methylsulfonyl)-[1,1′-biphenyl]-4-yl)-1-methyl-1H-pyrazol-3-yl)cyclopropanecarbonitrile]
7	86	–	Cc1nc(-c2ccc3c(c2)OC(F)(F)O3)c(-c2cc(-c3cccc(S(C)(=O)=O)c3)ccc2-c2cc(C3(C#N)CC3)nn2C)o1 [Example 118, 1-(5-(3-(4-(2,2-difluorobenzo[d][1,3]dioxol-5-yl)-2-methyloxazol-5-yl)-3′-(methylsulfonyl)-[1,1′-biphenyl]-4-yl)-1-methyl-1H-pyrazol-3-yl) cyclopropanecarbonitrile]
